# Legend:
# [1] = system: sugar beet cotyledon explants; test: Transformation of sugar beet, positive and negative selection; format: cell-based; settings: 400 mg/l kanamycin sulphate + 1 mg/l BAP (100 explants) or + 15 mg/l BA3GN (177 explants)
# Source text: Seeds were germinated for 4 days in darkness on a substrate containing 0.7 g/l of agarose and 2 g/l of sucrose. The seedlings were then transferred to a Nunc container containing 1/2×MSO substrate and cultured for 3 days in the light. The cotyledons were removed from the seedlings, and the cotyledon explants were then brushed on the petiole with a small brush containing an Agrobacterium suspension, the Agrobacterium containing 35S-NPTII and 35S-GUS (OD 660=0.1). The cotelydons were then co-cultivatedfor 4 days on a substrate containing 1/10 MSO substrate and 200 μM acetosyringone. […] The regenerated shoots were then transferred to containers containing the same substrate. After 52 days on this substrate all the shoots were transferred to MSO substrate supplemented with 800 mg/l carbenicillin, 25 mg/l vancomycin and 0.1 mg/l BA. After 14 days GUS assays as described in Example 3 were performed on the selected plant material.
# [2] = system: hypocotyl explants of oilseed rape; test: Transgenic callus from oilseed rape, second section of Table 19; format: cell-based
# Procedure: (§1) Experiments were performed as described in Example 11, although with certain modifications. The plant species used were the very recalcitrant breeding lines "V486" of winter oil seed rape and "S487" of summer oilseed rape. Seeds were sterilized and germinated as described in Example 16. Hypocotyls were used as explants and were inoculated and co-cultured as described in Example 11. After co-cultivation the explants were transferred to MSO substrate containing 0.1 mg/l naphthylacetic acid, 0.01 mg/l gibberellic acid (GA3), 500 mg/l carbenicillin, 50 mg/l kanamycin sulphate and 6.0 g/l agarose. The substrate contained in addition either 1 mg/l BA or 3.75, 7.5 or 15.0 mg/l BA3GN sodium salt. The pH was adjusted to 5.8. The Agrobacterium used contained in its T-DNA a GUS gene and a neomycinphosphotransferase II gene driven by 35S promoters. GUS assays were performed after 8 weeks and callus showing an intense blue staining in most of the callus cells was registered as being GUS.
# [3] = system: leaf discs of tobacco with (GUS+) introduced β-glucuronidase genes; format: cell-based, Nicotiana tabacum 'Wisconsin 38'; settings: test compounds at several concentrations up to 250 μM in MSO
# [4] = system: leaf discs of tobacco without (GUS-) introduced β-glucuronidase genes; format: cell-based, Nicotiana tabacum 'Wisconsin 38'; settings: test compounds at several concentrations up to 250 μM in MSO
# [5] = system: hypocotyl explants of winter oil seed rape V486; test: Transgenic callus from oilseed rape, winter type V486; format: cell-based; settings: 50 mg/l kanamycin sulphate
# Procedure: as §1
# [6] = target: β-glucuronidase from E. coli (Escherichia coli, UniProt P05804); test: Hydrolysis by β-glucuronidase (GUS), HPLC/TLC; format: biochemical; settings: for Hydrolysis by β-glucuronidase (GUS), result in words: 50 mM sodium phosphate buffer pH 7.0, 37° C., HPLC/TLC
# Procedure: […] […] This confirms the identity of the product as a conjugate of BA and β-D-glucuronic acid.
# […] The presence of hydrolysis products is then determined using HPLC and TLC.
# [7] = system: tobacco leaf disc containing an introduced β-glucuronidase gene; test: Shoot regeneration with sterol glucuronides on tridemorph substrate; format: cell-based; settings: sitosteryl glucuronide 12.5 mg/l and/or cholesteryl glucuronide 50 mg/l; tridemorph 0.1 mM and BA3GN sodium salt (5 mM); 30 days
# [8] = system: explants with the mannose 6-phosphate isomerase gene from E. coli; test: Regenerated shoots selected by compounds in addition to mannose, M-6-P-isomerase; format: cell-based; settings: genotype M-6-P-isomerase
# Wild type explants = test: Regenerated shoots selected by compounds in addition to mannose, wild type; format: cell-based; settings: genotype Wild type
# [9] = target: T1, GUS activity in plant tissue (Escherichia coli, UniProt P05804); test: Histological GUS reaction (X-gluc) in plant species with saccharo 1,4-lactone; format: cell-based; settings: saccharo 1,4-lactone 10 mM, pH 3-8, transgenic (1), GUS gene from E. coli
# T1 construct: from tissue; host or cells: leaves of a number of plant species
# [10] = system: GUS activity in plant tissue; test: as above; format: cell-based; settings: saccharo 1,4-lactone 10 mM, pH 3-8
# [11] = system: non-transformed potato stem segments; test: Inhibition by mannose of regeneration of shoots; format: cell-based, Solanum tuberosum
# Procedure: This substrate is referred to hereafter as "selection/regeneration substrate". Regenerated plants are produced as described above, except that the shoot segments are not co-cultured with bacteria and the washing procedure consequential thereon is omitted. […] In general, mannose cannot be used as a carbohydrate source in most plant species. When mannose is added to plants it is metabolized and mannose 6-phosphate accumulates. Mannose 6-phosphate can be converted to fructose 6-phosphate by mannose 6-phosphate isomerase, the amount converted being dependent upon the activity of the isomerase. Such fructose 6-phosphate may be utilized by plants, but in principal high levels of mannose (whether or not an alternative carbohydrate source is available) are toxic to plants.
# maize callus cultures = settings: callus cultures of 4 maize lines; 0-20 g/L; three weeks
# maize protoplasts = test: Mannose selection in maize protoplast PEG-mediated transformation; format: cell-based; settings: 2% mannose for one to two weeks; 47/17 million protoplasts
# [12] = system: plant material transgenic for the mannose 6-phosphate isomerase gene; test: Effect of methyl-3-O-glucose on selection of transgenic shoots on mannose; format: cell-based; settings: mannose 15 g/l; MOG 0 g/l; no sucrose
# Source text: The transformed plant material is transgenic for the mannose 6-phosphate isomerase gene. After 21 days the selected shoots are harvested.
# immature maize embryos = test: Mannose selection of bombarded immature maize embryos; format: cell-based; settings: selection on 10 g/L D-mannose for 3 weeks; 420 embryos
# Chain of β-glucuronidase from E. coli (P05804 whole entry, looked up): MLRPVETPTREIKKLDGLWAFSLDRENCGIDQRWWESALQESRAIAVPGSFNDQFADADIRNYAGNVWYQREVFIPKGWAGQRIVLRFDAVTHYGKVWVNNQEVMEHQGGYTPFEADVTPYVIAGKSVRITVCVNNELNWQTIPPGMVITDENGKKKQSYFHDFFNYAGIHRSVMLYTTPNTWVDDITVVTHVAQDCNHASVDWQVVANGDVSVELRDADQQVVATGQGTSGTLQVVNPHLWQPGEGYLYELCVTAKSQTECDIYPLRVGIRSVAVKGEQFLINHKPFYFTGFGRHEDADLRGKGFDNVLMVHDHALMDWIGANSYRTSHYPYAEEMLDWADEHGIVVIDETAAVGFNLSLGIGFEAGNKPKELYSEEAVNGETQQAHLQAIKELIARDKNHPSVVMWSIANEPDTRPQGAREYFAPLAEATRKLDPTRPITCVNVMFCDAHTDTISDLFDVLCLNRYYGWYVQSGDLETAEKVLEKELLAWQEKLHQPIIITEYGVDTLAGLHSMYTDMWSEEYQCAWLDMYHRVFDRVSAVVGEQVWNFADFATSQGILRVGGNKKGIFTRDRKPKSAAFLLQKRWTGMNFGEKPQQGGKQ
# T1 sequence (P05804 whole entry): as the sequence (P05804 whole entry, looked up) above
structure (smiles),measurement,setting,value
O=C([O-])[C@H]1O[C@@H](n2cnc(NCc3ccccc3)c3ncnc2-3)[C@H](O)[C@@H](O)[C@@H]1O.[Na+],GUS+ Shoots,[1],4
same,GUS+ shoots (%),[1],2.3%
same,GUS+ callus per callus,[2]; BA3GN 3.75 mg/l,33.3%
same,GUS+ callus per explant,[2]; BA3GN 3.75 mg/l,1.7%
same,Explants with callus,"[2]; BA3GN 3.75 mg/l, 50 mg/l kanamycin sulphate",5.2%
same,Explants with callus,[2]; BA3GN 7.5 mg/l,9.2%
same,GUS+ callus per callus,[2]; BA3GN 7.5 mg/l,25.0%
same,GUS+ callus per explant,[2]; BA3GN 7.5 mg/l,2.3%
same,Explants with callus,[2]; BA3GN 15.00 mg/l,6.3%
same,GUS+ callus per callus,[2]; BA3GN 15.00 mg/l,14.2%
same,GUS+ callus per explant,[2]; BA3GN 15.00 mg/l,0.9%
same,"Shoot formation, GUS+",[3],"+ (""+"" means shoot formation at concentrations below 250 μM)"
same,"Shoot formation, GUS-",[4],"+ (""+"" means shoot formation at concentrations below 250 μM)"
same,GUS+ callus per callus,[5]; BA3GN 3.75 mg/l,7.1%
same,GUS+ callus per explant,[5]; BA3GN 3.75 mg/l,1.4%
same,Explants with callus,"[5]; BA3GN 3.75 mg/l, 8 weeks",19.0%
same,Explants with callus,[5]; BA3GN 7.5 mg/l,23.0%
same,GUS+ callus per callus,[5]; BA3GN 7.5 mg/l,5.9%
same,GUS+ callus per explant,[5]; BA3GN 7.5 mg/l,1.4%
same,Explants with callus,[5]; BA3GN 15.00 mg/l,30.6%
same,GUS+ callus per callus,[5]; BA3GN 15.00 mg/l,7.5%
same,GUS+ callus per explant,[5]; BA3GN 15.00 mg/l,2.3%
same,"Hydrolysis by β-glucuronidase (GUS), result in words",[6],virtually complete removal
same,removal of the glucuronide by GUS,"[6]; 2500 Fishman units, 12 hours, 37° C., HPLC and TLC",> 99%
"O=C([O-])[C@H]1O[C@@H](n2cnc3c(NCc4ccccc4)ncnc32)[C@H](O)[C@@H](O)[C@@H]1O.[Na+] [BA9GN sodium salt, 9-β-D-glucopyranuronosyl-6-benzylaminopurine, sodium salt]","Shoot formation, GUS+",[3],"- (""-"" means no shoot formation at concentrations below 250 μM)"
same,"Shoot formation, GUS-",[4],"- (""-"" means no shoot formation at concentrations below 250 μM)"
same,acid hydrolysis,"Chemical stability; 1 mg/ml, 1M hydrochloric acid at 100° C. overnight, TLC",acid-labile
same,"Hydrolysis by β-glucuronidase (GUS), result in words",[6],no detectable production of BA
same,production of BA after incubation with β-glucuronidase,[6]; 18 hours at 37° C.,< 1%
"c1ccc(CNc2ncnc3nc[nH]c23)cc1 [BA, N^6 -benzyladenine]",GUS+ Shoots,[1],0
same,GUS+ shoots (%),[1],0%
same,Explants with callus,[2]; BA 1 mg/l,0%
same,GUS+ callus per callus,[2]; BA 1 mg/l,0%
same,GUS+ callus per explant,[2]; BA 1 mg/l,0%
same,"Shoot formation, GUS+",[3],"+ (""+"" means shoot formation at concentrations below 250 μM)"
same,"Shoot formation, GUS-",[4],"+ (""+"" means shoot formation at concentrations below 250 μM)"
same,Explants with callus,[5]; BA 1 mg/l,0%
same,GUS+ callus per callus,[5]; BA 1 mg/l,0%
same,GUS+ callus per explant,[5]; BA 1 mg/l,0%
"CC(C)CCC[C@@H](C)[C@H]1CC[C@H]2[C@@H]3CC=C4C[C@@H](O[C@@H]5O[C@H](C(=O)O)[C@@H](O)[C@H](O)[C@H]5O)CC[C@]4(C)[C@H]3CC[C@]12C [Choesteryl-β-D-glucuronide, cholesteryl-β-D-glucuronide]",Shoots per leaf disc,[7],0.3
N[C@@H]1C(O)O[C@H](CO)[C@@H](O)[C@@H]1O (stereo partly drawn) [D-mannosamine],Number of regenerated shoots per explant,[8],0.8
same,Number of regenerated shoots per explant,Wild type explants,0
O=P(O)(O)OC[C@H]1OC(O)[C@@H](O)[C@@H](O)[C@@H]1O (stereo partly drawn) [D-mannose-6-phosphate],Number of regenerated shoots per explant,[8],0.7
same,Number of regenerated shoots per explant,Wild type explants,0
"O=C(O)[C@@H](O)[C@H]1OC(=O)[C@H](O)[C@H]1O [Saccharo 1,4-lactone]",Histological GUS reaction,[9]; Sugar beet,(+)
same,Histological GUS reaction,[9]; Tobacco,0
same,Histological GUS reaction,[10]; Oilseed rape,0
same,Histological GUS reaction,"[10]; Oxalis, stem or petiole",0
same,Histological GUS reaction,"[10]; Pea, stem or petiole",0
same,Histological GUS reaction,"[10]; Rhubarb, stem or petiole",0
same,Histological GUS reaction,"[10]; Sitka spruce, embryogenic callus",0
same,Histological GUS reaction,"[10]; Sugar beet, transgenic (2), NPT only",0
same,Histological GUS reaction,"[10]; Sugar beet, wild type",0
same,Histological GUS reaction,[10]; Tobacco,0
same,Histological GUS reaction,"[10]; Tobacco, transgenic (2), NPT only",0
same,Histological GUS reaction,"[10]; Wheat, albino",0
same,stability at the pH of the substrate,Chemical stability; equilibrium with saccharic acid,not a stable compound
"CC[C@H](CC[C@@H](C)[C@H]1CC[C@H]2[C@@H]3CC=C4C[C@@H](O[C@@H]5O[C@H](C(=O)O)[C@@H](O)[C@H](O)[C@H]5O)CC[C@]4(C)[C@H]3CC[C@]12C)C(C)C [Sitosteryl-β-D-glucuronide, β-sitosteryl-β-D-glucuronidide]",Shoots per leaf disc,[7],2.8
"O=C[C@@H](O)[C@@H](O)[C@H](O)[C@H](O)CO [mannose, D-mannose]",Number of regenerated shoots per explant,[8],1.1
same,Regenerated shoots/explant (%),"[11]; sucrose 0 g/l, mannose 5 g/l, up to 40th day",0%
same,Regenerated shoots/explant (%),"[11]; sucrose 0 g/l, mannose 10 g/l",0%
same,Regenerated shoots/explant (%),"[11]; sucrose 0 g/l, mannose 20 g/l",0%
same,Regenerated shoots/explant (%),"[11]; sucrose 10 g/l, mannose 5 g/l",3%
same,Regenerated shoots/explant (%),"[11]; sucrose 10 g/l, mannose 10 g/l",0%
same,Regenerated shoots/explant (%),"[11]; sucrose 10 g/l, mannose 20 g/l",0%
same,Regenerated shoots/explant (%),"[11]; sucrose 20 g/l, mannose 5 g/l",0%
same,Regenerated shoots/explant (%),"[11]; sucrose 20 g/l, mannose 10 g/l",0%
same,Regenerated shoots/explant (%),"[11]; sucrose 20 g/l, mannose 20 g/l",0%
same,"utilization as carbohydrate source, in words",maize callus cultures,cannot be utilized as the sole carbohydrate source
same,stable transformation frequency,maize protoplasts,0.00028%
same,GUS+ shoots/explant,[12],0
same,GUS+ shoots/sel. shoots (%),[12],0%
same,Number of regenerated shoots per explant,Wild type explants,0
same,% transformation,immature maize embryos,2.9%
